Measured values from publication PMC9218685, “Legume Plant Peptides as Sources of Novel Antimicrobial Molecules Against Human Pathogens” (Frontiers in Molecular Biosciences, 2022).
≈ marks a conversion by molar mass, not a printed value. Peptide text beside a SMILES is read from it.

Key:
Human red blood cells = assay: Hemolysis assay; format: cell-based; conditions: 1 h at 37°C in TBS pH 7.2, peptides 0.4–100 μM, hemoglobin release OD560, relative to 0.5% Triton X-100 = 100%
Experimental: Human blood was purchased from the Regional Blood Centre in Szeged. The use of human blood for the hemolysis assay has been authorized by the Regional Hungarian Ethics Committee and approved by the Ethics Review Sector of DG RTD (European Commission) in connection with EK’s ERC AdG SymBiotics. The cells from 10 ml of EDTA-blood were centrifuged at 1,500 × g for 1 min and washed several times in TBS buffer (10 mM Tris, pH = 7.2, 150 mM NaCl) until the supernatant became colorless. The cells were then resuspended in 12 ml TBS buffer and 100 μl of this cell suspension was incubated for 1 h at 37°C in the presence of NCR peptides (0.4–100 μM). The cells were centrifuged at 1,500 g for 1 min and the supernatants were transferred into sterile 96-well plates and the hemoglobin release was measured at OD560 (Hidex Sense Microplate Reader with Plate Reader Software version 5064). […] The hemolytic activity was calculated as % of red blood cell disruption relative to the positive control sample lysed with detergent Triton X-100.
While AMPs can be very effective against microbes, they should not be toxic for human cells. […] Disruption of red blood cells was measured by spectrophotometry and compared to samples lysed with the detergent Triton X-100 (Supplementary Figure S2). […]

[1] = tested on: E. coli, S. enteritidis, P. aeruginosa, L. monocytogenes, S. aureus, E. faecalis, K. pneumoniae and A. baumannii; assay: Antimicrobial activity assay, spectrum over the eight tested pathogenic bacteria; format: cell-based; conditions: 3 h treatment of ~10^7 log phase bacteria, peptides 25 to 0.8 µM; active = MBC ≤25 µM
Procedure, shortened: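 Log-phase bacteria (~10^7) treated 3 h with NCR peptides in potassium-phosphate buffer pH 7.4, two-fold dilutions from 25 µM to 0.8 µM. MBC is the lowest concentration completely eliminating viable bacteria. Strains: E. faecalis ATCC 29212, S. aureus HNCMO112011, L. monocytogenes ATCC 19111, P. aeruginosa ATCC 27853, E. coli ATCC 8739, S. enterica ATCC 13076, K. pneumoniae NCTC 13440, A. baumannii ATCC 17978.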

[2] = peptides carrying a StrepII tag at their C-terminus, 25 µM, 10% Fetal Bovine Serum, 37°C, 18 h; StrepTactin-HRP Western blot
Experimental: Peptides were incubated in 10% Fetal Bovine Serum at 37°C for 18 h. Full length NCRs were used at 25 μM, while short derivatives at 50 μM. The serum proteins and peptides were separated by sodium dodecyl sulfate-polyacrylamide gel electrophoresis (SDS-PAGE, 12% bis-tris gel, MES buffer pH 7.3) and visualized by Coomassie blue staining. NCRs with StrepII tag at their C-terminus were also detected by Western blot analysis using Precision Protein StrepTactin-HRP conjugate antibody (BioRad) and Clarity Western ECL (BioRad) for chemiluminescence detection according to the supplier.
FIGURE S3 Serum stability assay. Full length NCRs, StrepII-tagged NCR peptides (25 µM) and shorter NCR derivatives (50 µM) were incubated in water or in 10% Fetal Bovine Serum (FBS) for 18 hours at 37°C. Serum proteins and the peptides were separated by SDS-Page and visualized by Coomassie blue staining or in the case of StrepII-tagged NCRs also with Western blot. […]

[3] = tested on: Acinetobacter baumannii (ATCC 17978); assay: microbe, parasite or virus in culture; format: cell-based; conditions: ATCC 17978, 3 h
Procedure, shortened: (§1)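 About 10^7 log-phase bacteria were treated for 3 h in potassium-phosphate buffer (pH 7.4) with 2-fold peptide dilutions from 25 µM downward. MBC was the lowest concentration that completely eliminated viable bacteria.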

[4] = tested on: Escherichia coli (ATCC 8739); format: cell-based; conditions: ATCC 8739, 3 h
Procedure, shortened: as §1

[5] = tested on: Pseudomonas aeruginosa (ATCC 27853); format: cell-based; conditions: ATCC 27853, 3 h
Procedure, shortened: as §1

[6] = tested on: Salmonella enterica (ATCC 13076); format: cell-based; conditions: ATCC 13076, 3 h
Procedure, shortened: as §1

[7] = tested on: Listeria monocytogenes (ATCC 19111); format: cell-based; conditions: ATCC 19111, 3 h
Procedure, shortened: as §1

[8] = tested on: Enterococcus faecalis (ATCC 29212); format: cell-based
Procedure, shortened: as §1

[9] = tested on: E. coli in vitro coupled transcription/translation; assay: In vitro transcription/translation assay (GFP production); format: biochemical; conditions: RTS 100 E. coli HY Kit, 100 µM peptide or streptomycin, 2 technical parallels
Experimental: RTS 100 E. coli HY Kit (biotechrabbit Gmbh, Germany, catalog number: BR1400102) was used for the in vitro transcription/translation assay, according to the protocol. pIVEX2.3 control vector was used to produce GFP protein and to measure the translational efficiency. The amount of GFP produced was measured using a Hidex Plate Reader (Hidex Sense Microplate Reader with Plate Reader Software version 5064). […] All peptides and streptomycin were used at 100 µM concentration.
FIGURE 5 GFP production by E. coli in vitro coupled transcription-translation assay in the presence of 100 µM NCR or streptomycin. GFP fluorescence represents the average values of 2 technical parallels with their respective standard deviations (SD). *: p < 0.05, ****: p < 0.0001, as determined by one-way ANOVA.

[10] = quoted in the Introduction; ref Kim et al., 2015; cited from earlier work
From the text: In the Inverted Repeat Lacking Clade (IRLC) of legumes, in addition to defensins, a related family of peptides has evolved that encodes nodule specific, cysteine-rich NCR peptides that play essential roles in symbiosis ([Mergaert et al., 2003]; [Nallu et al., 2013]; [Montiel et al., 2017]). Legume plants in symbiosis with their rhizobium bacterium partner form nitrogen-fixing root nodules. The primary role of the NCR peptides is to convert bacteria into large polyploid, non-cultivable nitrogen-fixing bacteroids in the nodule cells ([Van de Velde et al., 2010]). This is a terminal differentiati ... || IRLC includes 56 genera and more than 4,000 species ([Duan et al., 2021]), and presumably all species have NCRs as it was confirmed in a few selected species. The genus Astragalus, with 2,300–2,500 members, has the highest number of species among angiosperms ([Duan et al., 2021]). In A. canadensis 108 NCRs have been identified ([Montiel et al., 2017]), while in the members of the Vicioid subclade 200–700 NCRs ([Ištvánek et al., 2014]; [Montiel et al., 2017]), thus, it is reasonable to assume that IRLC species in total express hundreds of thousand different NCRs, providing almost unlimited amou ...

CC[C@H](C)[C@H](NC(=O)CNC(=O)[C@@H](NC(=O)[C@H](CCCNC(=N)N)NC(=O)[C@@H]1CCCN1C(=O)[C@H](CS)NC(=O)[C@H](CC(=O)O)NC(=O)[C@H](CCCCN)NC(=O)[C@H](CC(=O)O)NC(=O)[C@H](CCCCN)NC(=O)[C@@H](NC(=O)[C@H](CS)NC(=O)[C@H](CO)NC(=O)[C@H](Cc1c[nH]cn1)NC(=O)[C@H](CC(N)=O)NC(=O)[C@H](CCCNC(=N)N)NC(=O)[C@H](CC(C)C)NC(=O)[C@H](CC(N)=O)NC(=O)[C@@H](NC(=O)[C@@H](N)CO)[C@@H](C)CC)[C@@H](C)CC)C(C)C)C(=O)N[C@@H](CC(C)C)C(=O)N[C@@H](CC(N)=O)C(=O)N[C@H](C(=O)N[C@@H](CCCNC(=N)N)C(=O)N[C@@H](CS)C(=O)N[C@@H](CCCNC(=N)N)C(=O)N[C@@H](CCCCN)C(=O)NCC(=O)N[C@@H](Cc1ccccc1)C(=O)N[C@@H](CS)C(=O)N[C@H](C(=O)N[C@@H](Cc1c[nH]cn1)C(=O)N[C@H](C(=O)N[C@@H](CO)C(=O)O)[C@@H](C)CC)C(C)C)[C@@H](C)CC [MsNCR465] (H-SINLRNHSCIKDKDCPRVGILNIRCRKGFCVHIS-OH; N-terminus assumed)
Hemolytic activity on human red blood cells (Human red blood cells): mild hemolysis at 50 and 100 μM

CC[C@H](C)[C@H](N)C(=O)N[C@@H](CCCNC(=N)N)C(=O)N[C@H](C(=O)N[C@@H](Cc1c[nH]cn1)C(=O)N[C@@H](CS)C(=O)N[C@@H](CCCCN)C(=O)N[C@@H](CC(=O)O)C(=O)N[C@@H](CC(=O)O)C(=O)N[C@@H](Cc1ccccc1)C(=O)N[C@@H](CC(=O)O)C(=O)N[C@@H](CS)C(=O)N[C@H](C(=O)N[C@@H](CCC(=O)O)C(=O)N[C@@H](CC(N)=O)C(=O)N[C@@H](CCCNC(=N)N)C(=O)N[C@@H](CC(C)C)C(=O)N[C@@H](CCC(N)=O)C(=O)N[C@H](C(=O)NCC(=O)N[C@@H](CS)C(=O)N[C@@H](CCCNC(=N)N)C(=O)N[C@@H](CC(C)C)C(=O)N[C@@H](CCC(N)=O)C(=O)N[C@@H](CCCNC(=N)N)C(=O)N[C@@H](CCC(=O)O)C(=O)N[C@@H](CCCCN)C(=O)N1CCC[C@H]1C(=O)N[C@@H](CCCNC(=N)N)C(=O)N[C@@H](CS)C(=O)N[C@H](C(=O)N[C@@H](CC(N)=O)C(=O)N[C@@H](CC(C)C)C(=O)N[C@H](C(=O)N[C@@H](CS)C(=O)N[C@@H](CCCNC(=N)N)C(=O)N[C@@H](CS)C(=O)N[C@@H](CC(C)C)C(=O)N[C@@H](CCCNC(=N)N)C(=O)N[C@@H](CCCNC(=N)N)C(=O)O)C(C)C)C(C)C)C(C)C)[C@@H](C)CC)[C@@H](C)CC [NCR055] (H-IRIHCKDDFDCIENRLQVGCRLQREKPRCVNLVCRCLRR-OH; N-terminus assumed)
Antibacterial spectrum over the eight tested bacterial strains [1]: effective against six bacterial strains but not against S. aureus and K. pneumonia | Stability in serum by Western blot [2]: stable in the presence of FBS | MBC Acinetobacter baumannii [3]: 3.125 µM (≈ 14.9 µg/mL) | MBC Escherichia coli [4]: 6.25 µM (≈ 29.7 µg/mL) | MBC Pseudomonas aeruginosa [5]: 6.25 µM (≈ 29.7 µg/mL) | MBC Salmonella enterica [6]: 6.25 µM (≈ 29.7 µg/mL) | MBC Listeria monocytogenes [7]: 3.125 µM (≈ 14.9 µg/mL) | Ability to kill E. faecalis ([8]; 3 h, ~10^7 log phase bacteria, peptides ≤25 µM): able to kill | MBC Enterococcus faecalis ([8]; ATCC 29212, 3 h): 12.5 µM (≈ 59.5 µg/mL)

[H]/N=C(/N)N[C@H]1[C@H](O)[C@@H](O)[C@H](O[C@@H]2O[C@@H](C)[C@](O)(C=O)[C@H]2O[C@@H]2O[C@@H](CO)[C@H](O)[C@@H](O)[C@@H]2NC)[C@@H](N/C(N)=N\[H])[C@@H]1O [streptomycin]
Effect on GFP production (translation) [9]: inhibited strongly

DRECDTDTECQKKFPGVNAHHLWCDNGNCVSYPK [NCR211, anionic M. truncatula NCR peptide]
net charge [10]: −2.1 | Antibacterial spectrum over the eight tested bacterial strains [1]: inactive
